This is an account of results in US20040006070A1, “Intraspinal continuous infusion of midazolam hydrochloride for the treatment of pain” (priority 2002, published 2004).

Where a name gives a salt, the structure may show the parent alone.

A short description of series [1]: Toxicity in neuropathic pain sheep: clinical signs, necropsy, histopathology. In kind it is in vivo. The text has this:
Animals will be observed daily for any signs of clinical toxicity such as limping and loss of appetite. At necropsy the spinal cord will be examined for any gross changes. Histopathologic evaluation will be performed on all animals after drug studies are complete. These examinations will detect any neurotoxicity that may be present due to the spinal infusion of midazolam.

The subject of the next series is Acute Pain Sheep Model. Put plainly: Mechanical stimulus device nociceptive testing (% MPE), acute pain sheep model. Format: in vivo. As for the experimental part:
Open-label (known dose) trial: A trial with known midazolam doses was performed in the first 7 sheep. Animals were administered 3 mg/day (N=1), 5 mg/day (N=1), 10 mg/day (N=1), and 15 mg/day (N=4) for 43 days. These doses were chosen based upon previous intrathecal bolus dose studies in rats and humans, with conversion of from species to species based on cerebral spinal fluid (CSF) production rate and total CSF volume. Analgesic activity was assessed using a mechanical stimulus device which produces a stimulus of acute pain by application of force via a blunt needle applied to the shaved front foreleg of the animal. Force is applied with increasing pressure until the animal lifts its leg in response to the painful stimulus. To evaluate the analgesic effect of midazolam, response latencies were expressed as a percentage of the maximum possible effect, % MPE. The response latency is defined as follows: [formula]
A mechanical stimulus device was used for the pain stimulus. […] The force applied to the pin was measured by strain gauges that are incorporated into the device on the leg. The output from the strain gauges was recorded on a millivoltmeter in the control box. […] To compare the effects of midazolam, the data were accumulated over the testing period, and all response latencies were expressed as percentage of the maximum possible effect (MPE) where: [formula] […]

The conditions of series [2]: rabbit, intrathecal bolus 0.1% midazolam or preservative-free midazolam in 0.3 ml, one or five days; cited from earlier work.

Regarding `Cc1ncc2n1-c1ccc(Cl)cc1C(c1ccccc1F)=NC2` [Midazolam, midazolam hydrochloride], the tolerability entry in series [1] (intrathecal up to 5 mg/day) was “tolerated well”. Also, the “necropsy, spinal cord lesions” value in series [1] (sheep #980 Dudley) was “did not exhibit any spinal cord lesions”. Besides, the pain relief result with Acute Pain Sheep Model (closed-label study, 5 or 15 mg/day intrathecal) is recorded as “significant pain relief”; in the series with Acute Pain Sheep Model (open-label trial, all treated animals, 5-15 mg/day intrathecal for 43 days) it was “significant pain relief”. Moreover, in series [2], the neurotoxicity result is on record as “neurotoxicity”.
